Experimental data taken from ChEMBL document CHEMBL1126248, “Synthesis and enzymatic activity of some new purine ring system analogues of adenosine 3',5'-cyclic monophosphate” (J Med Chem, 1992).

Columns and labels:
[1] = organism: Oryctolagus cuniculus
Description: Activation of cAMP-dependent protein kinase type I

[2] = biological target: cAMP-dependent protein kinase A (Bos taurus) (UniProt P00517+P05131+P31322+P00515)
Description: Activation of cAMP-dependent protein kinase type II

| Compound | K'a [1] | K'a [2] |
| --- | --- | --- |
| Nc1cccc2c1ncn2[C@@H]1O[C@@H]2COP(=O)(O)O[C@H]2[C@H]1O | 0.2 | 0.67 |
| O=[N+]([O-])c1cccc2c1cnn2[C@@H]1O[C@@H]2COP(=O)(O)O[C@H]2[C@H]1O | 1.17 | 2.5 |
| O=[N+]([O-])c1cccc2c1nnn2[C@@H]1O[C@@H]2COP(=O)(O)O[C@H]2[C@H]1O | 0.88 | 1 |
| O=[N+]([O-])c1cccc2c1ncn2[C@@H]1O[C@@H]2COP(=O)(O)O[C@H]2[C@H]1O | 0.08 | 1.56 |
| Nc1cccc2c1cnn2[C@H]1O[C@@H]2COP(=O)(O)O[C@H]2[C@H]1O | 0.65 | 0.54 |
| O=P1(O)OC[C@H]2O[C@@H](n3cc4ccccc4n3)[C@H](O)[C@@H]2O1 | 0.14 | 1.4 |

Other lines, results leading:

| K'a [1] | K'a [2] | Compound |
| --- | --- | --- |
| 0.014 | 0.048 | O=P1(O)OC[C@H]2O[C@@H](n3ncc4ccccc43)[C@H](O)[C@@H]2O1 |
| 0.64 | 0.88 | O=P1(O)OC[C@H]2O[C@@H](n3nnc4ccccc43)[C@H](O)[C@@H]2O1 (stereo in doubt; 14) |
| 0.82 | 3.5 | O=P1(O)OC[C@H]2O[C@@H](n3nc4ccccc4n3)[C@H](O)[C@@H]2O1 |
| 0.25 | 0.7 | O=P1(O)OC[C@H]2O[C@@H](n3nnc4ccccc43)[C@H](O)[C@@H]2O1 (stereo in doubt) |
| 0.88 | 0.93 | Nc1cccc2c1nnn2[C@@H]1O[C@@H]2COP(=O)(O)O[C@H]2[C@H]1O |
